Reference: patent US7642245B2, “Antibacterial compounds having a (pyrrole carboxamide)-(benzamide)-(imidazole carboxamide) motif” (Oscient Pharmaceuticals Corporation, priority 2002, dated 2010)

What was measured:
[1] = system: Enterococcus faecalis ATCC 29212; assay: Disc diffusion of non-formulated compounds; format: cell-based; details: ATCC29212, non-formulated compound, 30 μg/disc, E. faecalis ATCC 29212 on TSA + 5% Sheep Blood, 6.3 mm disc = no inhibition zone, read-out: Zone Diameter (nearest whole mm)
Method: (§1) The diffusion assays on a compound of this invention were performed according to NCCLS Guidelines (Performance Standards for Antimicrobial Susceptibility Testing, M100-S12 vol. 22 and Performance Standards for Antimicrobial Disk Susceptibility Tests, M2-A7 vol. 20) with the following modifications: Generally, diffusion of the drug from the inoculation site (the disk or the well, as the case may be) through the agar creates a concentration gradient of the test compound. Bacterial growth is inhibited by the drug, creating a zone of inhibition. […] The activity of the compound was determined by measurement of the zone of inhibition surrounding the disk. The results are provided in Tables C, D, and E. The diffusion results of Table C measure the diffusion of free compound. The diffusion results of Tables D and E measure the diffusion of compound formulated into a cream.

[2] = system: Staphylococcus aureus ATCC 13709; assay: Disc diffusion of non-formulated compounds; format: cell-based; details: ATCC13709, non-formulated compound, 30 μg/disc, S. aureus ATCC 13709 on TSA, 6.3 mm disc = no inhibition zone, read-out: Zone Diameter (nearest whole mm)
Method: as §1

[3] = system: Streptococcus pneumoniae ATCC 49619; assay: Disc diffusion of non-formulated compounds; format: cell-based; details: ATCC49619, non-formulated compound, 30 μg/disc, S. pneumoniae ATCC 49619 on TSA + 5% Sheep Blood, 6.3 mm disc = no inhibition zone, read-out: Zone Diameter (nearest whole mm)
Method: as §1

[4] = system: S. aureus ATCC 13709; assay: MIC, NCCLS broth microdilution; format: cell-based, Staphylococcus aureus; details: A = S. aureus ATCC 13709 (MSSA)
Summary of the method: (§2)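 Compounds were serially diluted in broth and tested against each strain according to NCCLS guidelines, with MIC taken as the endpoint. C. albicans was assayed per the Manual of Clinical Microbiology.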

[5] = system: S. aureus ATCC 27660; assay: MIC, NCCLS broth microdilution; format: cell-based, Staphylococcus aureus; details: B = S. aureus ATCC 27660 (MRSA)
Summary of the method: as §2

[6] = system: E. faecalis ATCC 29212; assay: MIC, NCCLS broth microdilution; format: cell-based, Enterococcus faecalis; details: C = E. faecalis ATCC 29212
Summary of the method: (§3)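 Minimal inhibitory concentration determined by NCCLS broth microdilution in microtiter plates per documents M7-A4, M11-A4 and M27-T. S. aureus ATCC 27660 is a methicillin-resistant strain. The antifungal test on C. albicans followed the method recommended in the Manual of Clinical Microbiology (1995).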

[7] = system: B. cereus ATCC 11778; assay: MIC, NCCLS broth microdilution; format: cell-based, Bacillus cereus; details: D = B. cereus ATCC 11778
Summary of the method: as §2

[8] = system: S. pneumoniae ATCC 49619; assay: MIC, NCCLS broth microdilution; format: cell-based, Streptococcus pneumoniae; details: E = S. pneumoniae ATCC 49619
Summary of the method: as §3

[9] = system: C. albicans ATCC 38247; assay: MIC, antifungal assay; format: cell-based, Candida albicans; details: F = C. albicans ATCC 38247
Summary of the method: as §2

[10] = system: E. coli ATCC 25922; assay: MIC, NCCLS broth microdilution; format: cell-based, Escherichia coli; details: G = E. coli ATCC 25922
Summary of the method: as §3

[11] = system: M. catarrhalis (ATCC 25238); assay: MIC, NCCLS broth microdilution; format: cell-based, Moraxella (now Branhamella) catarrhalis; details: H = M. catarrhalis (ATCC 25238)
Summary of the method: as §2

Minimum Inhibitory Concentration (MIC) [4] | Minimum Inhibitory Concentration (MIC) [5] | Minimum Inhibitory Concentration (MIC) [6] | Minimum Inhibitory Concentration (MIC) [7] | Minimum Inhibitory Concentration (MIC) [8] | Minimum Inhibitory Concentration (MIC) [9] | Minimum Inhibitory Concentration (MIC) [10] | Minimum Inhibitory Concentration (MIC) [11] | SMILES | zone of inhibition at 30 µg/disc [1] [mm] | zone of inhibition at 30 µg/disc [2] [mm] | zone of inhibition at 30 µg/disc [3] [mm]
 |  |  |  |  |  |  |  | CN[C@H](CC(C)C)C(=O)N[C@H]1C(=O)N[C@@H](CC(N)=O)C(=O)N[C@H]2C(=O)N[C@H]3C(=O)N[C@H](C(=O)N[C@H](C(=O)O)c4cc(O)cc(O)c4-c4cc3ccc4O)[C@H](O)c3ccc(c(Cl)c3)Oc3cc2cc(c3O[C@@H]2O[C@H](CO)[C@@H](O)[C@H](O)[C@H]2O[C@H]2C[C@](C)(N)[C@H](O)[C@H](C)O2)Oc2ccc(cc2Cl)[C@H]1O [Vancomycin] | 15 | 15 | 19
+++ (MIC ≦ 4 μg/mL) | +++ (MIC ≦ 4 μg/mL) | +++ (MIC ≦ 4 μg/mL) | +++ (MIC ≦ 4 μg/mL) | +++ (MIC ≦ 4 μg/mL) | + (12 ≦ MIC ≦ 32 μg/mL) | >32 µg/mL | +++ (MIC ≦ 4 μg/mL) | Cn1cc(NC(=O)c2cc3ccccc3cn2)cc1C(=O)Nc1ccc(C(=O)Nc2cn(C)c(C(=O)NCCN3CCNCC3)n2)cc1 [Compound A-47] |  |  | 
+++ (MIC ≦ 4 μg/mL) | +++ (MIC ≦ 4 μg/mL) | +++ (MIC ≦ 4 μg/mL) | +++ (MIC ≦ 4 μg/mL) | +++ (MIC ≦ 4 μg/mL) | >32 µg/mL | >32 µg/mL | >32 µg/mL | COCCCNCCNC(=O)c1nc(NC(=O)c2ccc(NC(=O)c3cc(NC(=O)c4cc5ccccc5cn4)cn3C)cc2)cn1C [Compound A-39] |  |  | 
+++ (MIC ≦ 4 μg/mL) | +++ (MIC ≦ 4 μg/mL) | +++ (MIC ≦ 4 μg/mL) | +++ (MIC ≦ 4 μg/mL) | +++ (MIC ≦ 4 μg/mL) | + (12 ≦ MIC ≦ 32 μg/mL) | ++ (4 < MIC < 12 μg/mL) | +++ (MIC ≦ 4 μg/mL) | COCCN(C)CCNC(=O)c1nc(NC(=O)c2ccc(NC(=O)c3cc(NC(=O)c4cc5ccccc5cn4)cn3C)cc2)cn1C [Compound A-29] |  |  | 
